Laboratory results: patent US10626094B2 (La Jolla Institute of Allergy & Immunology, priority 2014, dated 2020)

Biological target: LMPTP-A (Low Molecular Weight Protein Tyrosine Phosphatase-A) enzyme (Homo sapiens (Human), UniProt P24666)
Assay: LMPTP primary screening / LMPTP (OMFP) enzyme inhibition assay, fluorescence intensity
Format: biochemical
Details: LMPTP-A, OMFP substrate, method of Example 2; read-out: IC50
How it was run: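 0.625 nM LMPTP-A with 400 μM OMFP substrate in 50 mM Bis-Tris pH 6.0, 1 mM DTT, 0.01% Triton X-100, […]. Compounds at 20 μM final. Incubated 50 min at room temperature in the dark; fluorescence intensity read.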

LMPTP-A (Low Molecular Weight Protein Tyrosine Phosphatase-A) enzyme, sequence (P24666 whole entry): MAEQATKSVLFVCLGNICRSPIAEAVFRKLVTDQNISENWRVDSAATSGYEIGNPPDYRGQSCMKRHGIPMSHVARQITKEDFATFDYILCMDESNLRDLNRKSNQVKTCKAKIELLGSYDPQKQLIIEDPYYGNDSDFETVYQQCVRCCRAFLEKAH

Row | SMILES | IC50 [nM]
1 | COc1ccc(-c2cc(Nc3ccccc3CC3CCNCC3)c3ccccc3n2)cc1 [Compound I38, [2-(4-methoxyphenyl)(4-quinolyl)][2-(4-piperidylmethyl)phenyl]amine] | > 5000
2 | FC(F)(F)c1ccc(C(F)(F)F)c(-c2cc(Nc3cccc(CC4CCN(Cc5ccccc5)CC4)c3)c3ccccc3n2)c1 [Compound I40, {2-[2,5-bis(trifluoromethyl)phenyl](4-quinolyl)}(3-{[1-benzyl(4-piperidyl)]methyl}phenyl)amine] | > 5000
3 | CN(C)Cc1cccc(Nc2cc(-c3cc(C(F)(F)F)cc(C(F)(F)F)c3)nc3ccccc23)c1 [Compound I42, {[3-({2-[3,5-bis(trifluoromethyl)phenyl](4-quinolyl)}amino)phenyl]methyl}dimethylamine] | > 5000
4 | FC(F)(F)c1cc(-c2cc(Nc3ccc(CN4CCCCC4)cc3)c3ccccc3n2)cc(C(F)(F)F)c1 [Compound I43, {2-[3,5-bis(trifluoromethyl)phenyl](4-quinolyl)}[4-(piperidylmethyl)phenyl]amine] | > 5000
5 | FC(F)(F)c1cc(-c2cc(Nc3cccc(CN4CCCC4)c3)c3ccccc3n2)cc(C(F)(F)F)c1 [Compound I44, {2-[3,5-bis(trifluoromethyl)phenyl](4-quinolyl)}[3-(pyrrolidinylmethyl)phenyl]amine] | > 5000
6 | CN1CCCC1CCNc1cc(-c2cc(C(F)(F)F)cc(C(F)(F)F)c2)nc2ccccc12 (centres unmarked) [Compound I46, {2-[3,5-bis(trifluoromethyl)phenyl](4-quinolyl)}[2-(1-methylpyrrolidin-2-yl)ethyl]amine] | > 5000
7 | CN(C)Cc1ccc(Nc2cc(-c3cc(C(F)(F)F)cc(C(F)(F)F)c3)nc3ccccc23)cc1 [Compound I47, {[4-({2-[3,5-bis(trifluoromethyl)phenyl](4-quinolyl)}amino)phenyl]methyl}dimethylamine] | > 5000
8 | C[N+]1(C)CCC(Cc2ccccc2Nc2cc(-c3cc(C(F)(F)F)cc(C(F)(F)F)c3)nc3ccccc23)CC1 [Compound I48, {2-[(1,1-dimethyl(4-piperidyl))methyl]phenyl} {2-[3,5-bis(trifluoromethyl)phenyl](4-quinolyl)}amine] | > 5000
9 | FC(F)(F)c1cc(-c2cc(Nc3ccccc3CC3CCNCC3)c3ccccc3n2)cc(C(F)(F)F)c1 [Compound I49, {2-[3,5-bis(trifluoromethyl)phenyl](4-quinolyl)}[2-(4-piperidylmethyl)phenyl]amine] | > 5000
10 | FC(F)(F)c1cc(-c2cc(Nc3cccc(CC4CCN(Cc5ccccc5)CC4)c3)c3ccccc3n2)cc(C(F)(F)F)c1 [Compound I50, {2-[3,5-bis(trifluoromethyl)phenyl](4-quinolyl)}(3-{[1-benzyl(4-piperidyl)]methyl}phenyl)amine] | > 5000
11 | C[N+]1(C)CCC(Cc2cccc(Nc3cc(-c4cc(C(F)(F)F)cc(C(F)(F)F)c4)nc4ccccc34)c2)CC1 [Compound I51, {3-[(1,1-dimethyl(4-piperidyl))methyl]phenyl} {2-[3,5-bis(trifluoromethyl)phenyl](4-quinolyl)}amine] | > 5000
12 | FC(F)(F)c1cc(-c2cc(Nc3cccc(CC4CCNCC4)c3)c3ccccc3n2)cc(C(F)(F)F)c1 [Compound I52, {2-[3,5-bis(trifluoromethyl)phenyl](4-quinolyl)}[3-(4-piperidylmethyl)phenyl]amine] | > 5000
13 | CN1CCCC1CCNc1cc(-c2ccc(C(F)(F)F)cc2C(F)(F)F)nc2ccccc12 (centres unmarked) [Compound I53, {2-[2,4-bis(trifluoromethyl)phenyl](4-quinolyl)}[2-(1-methylpyrrolidin-2-yl)ethyl]amine] | > 5000
14 | CN(C)Cc1ccc(Nc2cc(-c3ccc(C(F)(F)F)cc3C(F)(F)F)nc3ccccc23)cc1 [Compound I54, {[4-({2-[2,4-bis(trifluoromethyl)phenyl](4-quinolyl)}amino)phenyl]methyl}dimethylamine] | > 5000
15 | FC(F)(F)c1ccc(-c2cc(Nc3ccccc3CC3CCNCC3)c3ccccc3n2)c(C(F)(F)F)c1 [Compound I55, {2-[2,4-bis(trifluoromethyl)phenyl](4-quinolyl)}[2-(4-piperidylmethyl)phenyl]amine] | > 5000
16 | CC(C)NC(=O)c1ccc(-c2cc(NCCCN3CCCCC3)c3ccccc3n2)cc1 [Compound I61, N-(methylethyl)(4-{4-[(3-piperidylpropyl)amino](2-quinolyl)}phenyl)carboxamide] | 801 to 5000
17 | O=C(O)CNC(=O)c1ccc(-c2cc(NCCCN3CCCCC3)c3ccccc3n2)cc1 [Compound I68] | 801 to 5000
18 | COC(=O)CNC(=O)c1ccc(-c2cc(NCCCN3CCCCC3)c3ccccc3n2)cc1 [Compound I69] | 801 to 5000
19 | CN(C)C(=O)c1ccc(-c2cc(NCCCN3CCCCC3)c3ccccc3n2)cc1 [Compound I72] | 801 to 5000
20 | CNC(=O)c1ccc(-c2cc(NCCCN3CCCCC3)c3ccccc3n2)cc1 [Compound I73] | 801 to 5000

Row | SMILES | IC50 [nM]
21 | FC(F)(F)c1ccc(Nc2cc(NCCCN3CCCCC3)c3ccccc3n2)c(C(F)(F)F)c1 [Compound I75] | > 5000
22 | Clc1cccc(Nc2cc(NCCCN3CCCCC3)c3ccccc3n2)c1 [Compound I76] | > 5000
23 | CC(=O)Nc1ccc(-c2cc(NCCCN3CCCCC3)c3ccccc3n2)cc1C(F)(F)F [Compound I77] | 801 to 5000
24 | CC(=O)OCc1cccc(-c2cc(NCCCN3CCCCC3)c3ccccc3n2)c1 [Compound I79, 3-{4-[(3-piperidylpropyl)amino]-2-quinolyl}phenyl)methyl acetate] | 801 to 5000
25 | Nc1cc(C(=O)N2CCOCC2)cc(-c2cc(NCCCN3CCCCC3)c3ccccc3n2)c1 [Compound I80] | 801 to 5000
26 | Cc1cc(-c2cc(NCCCN3CCCCC3)c3ccccc3n2)cnc1C#N [Compound I83] | 801 to 5000
27 | O=C(c1ccc(-c2cc(NCCCN3CCCCC3)c3ccccc3n2)cc1)N1CCCC1 [Compound I84, 4-{4-[(3-piperidylpropyl)amino](2-quinolyl)}phenyl pyrrolidinyl ketone] | 801 to 5000
28 | Fc1cc(F)cc(-c2cc(NCCCN3CCCCC3)c3ccccc3n2)c1 [Compound I85] | 801 to 5000
29 | Fc1cc(F)c(-c2cc(NCCCN3CCCCC3)c3ccccc3n2)cc1F [Compound I86] | 801 to 5000
30 | FC(F)(F)c1ccc(Oc2ccc(-c3cc(NCCCN4CCCCC4)c4ccccc4n3)cn2)cc1 [Compound I87] | 801 to 5000
31 | Fc1ccc(-c2cc(NCCCN3CCCCC3)c3ccccc3n2)c(F)n1 [Compound I90] | 801 to 5000
32 | CSc1cncc(-c2cc(NCCCN3CCCCC3)c3ccccc3n2)c1 [Compound I92] | 801 to 5000
33 | CCCCOc1ncccc1-c1cc(NCCCN2CCCCC2)c2ccccc2n1 [Compound I93] | 801 to 5000
34 | Fc1cccnc1-c1cc(NCCCN2CCCCC2)c2ccccc2n1 [Compound I94] | 801 to 5000
35 | CCOc1ncccc1-c1cc(NCCCN2CCCCC2)c2ccccc2n1 [Compound I96] | 801 to 5000
36 | Fc1cccc(-c2cc(NCCCN3CCCCC3)c3ccccc3n2)n1 [Compound I97] | 801 to 5000
37 | CC(C)(C)OC(=O)n1c(-c2cc(NCCCN3CCCCC3)c3ccccc3n2)cc2ccccc21 [Compound I98, tert-butyl 2-{4-[(3-piperidylpropyl)amino]-2-quinolyl}indolecarboxylate] | > 5000
38 | Clc1ncccc1-c1cc(NCCCN2CCCCC2)c2ccccc2n1 [Compound I99] | 801 to 5000
39 | Clc1cc(-c2cc(NCCCN3CCCCC3)c3ccccc3n2)ccn1 [Compound I102] | 801 to 5000

Next, values leading:

Row | IC50 [nM] | SMILES
40 | 801 to 5000 | COc1ccc(-c2cc(Nc3cccc(CN(C)C)c3)c3ccccc3n2)cc1 [Compound I39, [(3-{[2-(4-methoxyphenyl)(4-quinolyl)]amino}phenyl)methyl]dimethylamine]
41 | 801 to 5000 | FC(F)(F)c1ccc(C(F)(F)F)c(-c2cc(Nc3cccc(CC4CCNCC4)c3)c3ccccc3n2)c1 [Compound I41, {2-[2,5-bis(trifluoromethyl)phenyl](4-quinolyl)}[3-(4-piperidylmethyl)phenyl]amine]
42 | 801 to 5000 | CN(C)Cc1cc(CO)cc(Nc2cc(-c3cccc(Cl)c3)nc3ccccc23)c1 [Compound I45, (5-[(dimethylamino)methyl]-3-{[2-(3-chlorophenyl)(4-quinolyl)]amino}phenyl)methan-1-ol]
43 | 801 to 5000 | CC(C)C(=O)Nc1ccc(-c2cc(NCCCN3CCCCC3)c3ccccc3n2)cc1 [Compound I56]
44 | 200 to 800 | O=C(Nc1ccc(-c2cc(NCCCN3CCCCC3)c3ccccc3n2)cc1)c1ccccc1 [Compound I57]
45 | 801 to 5000 | O=C(O)CCC(=O)Nc1ccc(-c2cc(NCCCN3CCCCC3)c3ccccc3n2)cc1 [Compound I58]
46 | 200 to 800 | N#CCCNC(=O)c1ccc(-c2cc(NCCCN3CCCCC3)c3ccccc3n2)cc1 [Compound I59]
47 | 801 to 5000 | CCNC(=O)c1ccc(-c2cc(NCCCN3CCCCC3)c3ccccc3n2)cc1 [Compound I62]
48 | 801 to 5000 | O=C(NCC(F)(F)F)c1ccc(-c2cc(NCCCN3CCCCC3)c3ccccc3n2)cc1 [Compound I63]
49 | 801 to 5000 | O=C(NCC1CCCO1)c1ccc(-c2cc(NCCCN3CCCCC3)c3ccccc3n2)cc1 (centres unmarked) [Compound I64]
50 | 200 to 800 | CCOC(=O)CNC(=O)c1ccc(-c2cc(NCCCN3CCCCC3)c3ccccc3n2)cc1 [Compound I65]
51 | 200 to 800 | CN(C)CCNC(=O)c1ccc(-c2cc(NCCCN3CCCCC3)c3ccccc3n2)cc1 [Compound I66]
52 | 200 to 800 | O=C(NCCCO)c1ccc(-c2cc(NCCCN3CCCCC3)c3ccccc3n2)cc1 [Compound I67]
53 | 200 to 800 | CCN(CC)C(=O)c1ccc(-c2cc(NCCCC3CCCNC3)c3ccccc3n2)cc1 (centres unmarked) [Compound I71, N,N-diethyl(4-{4-[(3-piperidylpropyl)amino](2-quinolyl)}phenyl)carboxamide]
54 | 200 to 800 | c1ccc2c(NCCCN3CCCCC3)cc(-c3ccc4ccsc4c3)nc2c1 [Compound I78]
55 | 200 to 800 | NC(=O)c1ccc(-c2cc(NCCCN3CCCCC3)c3ccccc3n2)cc1F [Compound I81]
56 | 200 to 800 | NC(=O)c1ccc(-c2cc(NCCCN3CCCCC3)c3ccccc3n2)cc1Cl [Compound I82]
